# pIC50: −log10 of the molar value.
# Tests used:
# SR [1] = test: Cytotoxicity against human SR cells assessed as growth inhibition after 48 hrs by sulforhodamine B assay; type: functional
# NCI-H322M = test: Cytotoxicity against human NCI-H322M cells assessed as growth inhibition after 48 hrs by sulforhodamine B assay; type: functional
# Malme-3M = test: Cytotoxicity against human MALME-3M cells assessed as growth inhibition after 48 hrs by sulforhodamine B assay; type: functional
# UACC-257 = test: Cytotoxicity against human UACC257 cells assessed as growth inhibition after 48 hrs by sulforhodamine B assay; type: functional; details: UACC-257, 48 h
# UO-31 = test: Cytotoxicity against human UO31 cells assessed as growth inhibition after 48 hrs by sulforhodamine B assay; type: functional; details: UO-31, 48 h
# MDA-MB-231 [2] = test: Cytotoxicity against human MDA-MB-231 cells assessed as growth inhibition after 48 hrs by MTT assay; type: functional, cell-based; details: MDA-MB-231, 48 h
# CCRF-CEM [3] = test: Cytotoxicity against human CCRF-CEM cells assessed as cell growth at 0.01 uM after 48 hrs by sulforhodamine B assay relative to control; type: functional; details: read-out: Activity
# SK-MEL-28 [4] = test: Cytotoxicity against human SK-MEL-28 cells assessed as cell growth at 0.01 uM after 48 hrs by sulforhodamine B assay relative to control; type: functional; details: SK-MEL-28, 48 h, read-out: Activity
# U-251 [5] = test: Cytotoxicity against human U251 cells assessed as cell growth at 0.01 uM after 48 hrs by sulforhodamine B assay relative to control; type: functional; details: U-251, 48 h, read-out: Activity
# SR [6] = test: Cytotoxicity against human SR cells assessed as cell growth at 0.01 uM after 48 hrs by sulforhodamine B assay relative to control; type: functional; details: read-out: Activity
# TK-10 [7] = test: Cytotoxicity against human TK10 cells assessed as cell growth at 0.01 uM after 48 hrs by sulforhodamine B assay relative to control; type: functional; details: TK-10, 48 h, read-out: Activity
# MDA-MB-231 [8] = test: Cytotoxicity against human MDA-MB-231 cells assessed as cell growth at 0.01 uM after 48 hrs by sulforhodamine B assay relative to control; type: functional; details: MDA-MB-231, 48 h, read-out: Activity
# Hs-578T = test: Cytotoxicity against human Hs 578T cells assessed as cell growth at 0.01 uM after 48 hrs by sulforhodamine B assay relative to control; type: functional; details: read-out: Activity
# BT-549 [9] = test: Cytotoxicity against human BT549 cells assessed as cell growth at 0.01 uM after 48 hrs by sulforhodamine B assay relative to control; type: functional; details: BT-549, 48 h, read-out: Activity
# MDA-MB-468 = test: Cytotoxicity against human MDA-MB-468 cells assessed as cell growth at 0.01 uM after 48 hrs by sulforhodamine B assay relative to control; type: functional; details: MDA-MB-468, 48 h, read-out: Activity
# A549 = test: Cytotoxicity against human A549/ATCC cells assessed as cell growth at 0.1 uM after 48 hrs by sulforhodamine B assay relative to control; type: functional; details: A549, 48 h, read-out: Activity
# SK-MEL-28 [10] = test: Cytotoxicity against human SK-MEL-28 cells assessed as cell growth at 0.1 uM after 48 hrs by sulforhodamine B assay relative to control; type: functional; details: SK-MEL-28, 48 h, read-out: Activity
# RXF 393 [11] = test: Cytotoxicity against human RXF393 cells assessed as cell growth at 0.1 uM after 48 hrs by sulforhodamine B assay relative to control; type: functional; details: RXF 393, 48 h, read-out: Activity
# SN12C [12] = test: Cytotoxicity against human SN12C cells assessed as cell growth at 0.1 uM after 48 hrs by sulforhodamine B assay relative to control; type: functional; details: read-out: Activity
# TK-10 [13] = test: Cytotoxicity against human TK10 cells assessed as cell growth at 0.1 uM after 48 hrs by sulforhodamine B assay relative to control; type: functional; details: TK-10, 48 h, read-out: Activity
# CCRF-CEM [14] = test: Cytotoxicity against human CCRF-CEM cells assessed as cell growth at 1 uM after 48 hrs by sulforhodamine B assay relative to control; type: functional; details: read-out: Activity
# HL-60(TB) = test: Cytotoxicity against human HL-60(TB) cells assessed as cell growth at 1 uM after 48 hrs by sulforhodamine B assay relative to control; type: functional; details: HL-60, 48 h, read-out: Activity
# K562 = test: Cytotoxicity against human K562 cells assessed as cell growth at 1 uM after 48 hrs by sulforhodamine B assay relative to control; type: functional; details: K562, 48 h, read-out: Activity
# MOLT-4 = test: Cytotoxicity against human MOLT4 cells assessed as cell growth at 1 uM after 48 hrs by sulforhodamine B assay relative to control; type: functional; details: MOLT-4, 48 h, read-out: Activity
# U-251 [15] = test: Cytotoxicity against human U251 cells assessed as cell growth at 1 uM after 48 hrs by sulforhodamine B assay relative to control; type: functional; details: U-251, 48 h, read-out: Activity
# MDA-MB-435 = test: Cytotoxicity against human MDA-MB-435 cells assessed as cell growth at 1 uM after 48 hrs by sulforhodamine B assay relative to control; type: functional; details: MDA-MB-435, 48 h, read-out: Activity
# SK-MEL-28 [16] = test: Cytotoxicity against human SK-MEL-28 cells assessed as cell growth at 1 uM after 48 hrs by sulforhodamine B assay relative to control; type: functional; details: SK-MEL-28, 48 h, read-out: Activity
# HT-29 = test: Cytotoxicity against human HT-29 cells assessed as cell growth at 10 uM after 48 hrs by sulforhodamine B assay relative to control; type: functional; details: HT-29, 48 h, read-out: Activity
# U-251 [17] = test: Cytotoxicity against human U251 cells assessed as cell growth at 10 uM after 48 hrs by sulforhodamine B assay relative to control; type: functional; details: U-251, 48 h, read-out: Activity
# OVCAR-4 = test: Cytotoxicity against human OVCAR4 cells assessed as cell growth at 10 uM after 48 hrs by sulforhodamine B assay relative to control; type: functional; details: OVCAR-4, 48 h, read-out: Activity
# A498 = test: Cytotoxicity against human A498 cells assessed as cell growth at 10 uM after 48 hrs by sulforhodamine B assay relative to control; type: functional; details: A498, 48 h, read-out: Activity
# SN12C [18] = test: Cytotoxicity against human SN12C cells assessed as cell growth at 10 uM after 48 hrs by sulforhodamine B assay relative to control; type: functional; details: read-out: Activity
# TK-10 [19] = test: Cytotoxicity against human TK10 cells assessed as cell growth at 10 uM after 48 hrs by sulforhodamine B assay relative to control; type: functional; details: TK-10, 48 h, read-out: Activity
# M14 = test: Cytotoxicity against human M14 cells assessed as cell growth at 100 uM after 48 hrs by sulforhodamine B assay relative to control; type: functional; details: M14, 48 h, read-out: Activity
# RXF 393 [20] = test: Cytotoxicity against human RXF393 cells assessed as cell growth at 100 uM after 48 hrs by sulforhodamine B assay relative to control; type: functional; details: RXF 393, 48 h, read-out: Activity
# BT-549 [21] = test: Cytotoxicity against human BT549 cells assessed as cell growth at 100 uM after 48 hrs by sulforhodamine B assay relative to control; type: functional; details: BT-549, 48 h, read-out: Activity
# [22] = read-out: LC50 (the source's name)
smiles,measurement,setting,value
COc1ccc(-c2cc(/C=C/C(=O)c3ccc4c(c3)OCO4)[nH]n2)cc1OC,GI50,SR [1],250 nM
same,GI50,NCI-H322M,2670 nM
same,GI50,Malme-3M,2590 nM
same,GI50,UACC-257,2160 nM
same,GI50,UO-31,1500 nM
same,pIC50,MDA-MB-231 [2],5.64
COc1cc(-c2cc(/C=C/C(=O)c3ccc(N)cc3)[nH]n2)cc(OC)c1OC,GI50,SR [1],320 nM
same,TGI,SR [1],2750 nM
same,CC50,SR [1]; [22],> 100000 nM
same,GI50,NCI-H322M,2230 nM
same,TGI,NCI-H322M,5590 nM
same,CC50,NCI-H322M; [22],20900 nM
same,GI50,Malme-3M,2050 nM
same,LC50,Malme-3M,14400 nM
same,TGI,Malme-3M,4710 nM
same,GI50,UACC-257,1870 nM
same,LC50,UACC-257,8660 nM
same,TGI,UACC-257,4020 nM
same,GI50,UO-31,1360 nM
same,LC50,UO-31,6000 nM
same,TGI,UO-31,2860 nM
same,pIC50,MDA-MB-231 [2],5.70
same,growth at 0.01 µM,CCRF-CEM [3],96%
same,growth at 0.01 µM,SK-MEL-28 [4],89%
same,growth at 0.01 µM,U-251 [5],98%
same,growth at 0.01 µM,SR [6],92%
same,growth at 0.01 µM,TK-10 [7],102%
same,growth at 0.01 µM,MDA-MB-231 [8],109%
same,growth at 0.01 µM,Hs-578T,95%
same,growth at 0.01 µM,BT-549 [9],85%
same,growth at 0.01 µM,MDA-MB-468,90%
same,growth at 0.1 µM,A549,94%
same,growth at 0.1 µM,SK-MEL-28 [10],95%
same,growth at 0.1 µM,RXF 393 [11],91%
same,growth at 0.1 µM,SN12C [12],99%
same,growth at 0.1 µM,TK-10 [13],100%
same,growth at 1 µM,CCRF-CEM [14],36%
same,growth at 1 µM,HL-60(TB),66%
same,growth at 1 µM,K562,43%
same,growth at 1 µM,MOLT-4,72%
same,growth at 1 µM,U-251 [15],76%
same,growth at 1 µM,MDA-MB-435,88%
same,growth at 1 µM,SK-MEL-28 [16],90%
same,growth at 10 µM,HT-29,-38%
same,growth at 10 µM,U-251 [17],-96%
same,growth at 10 µM,OVCAR-4,-22%
same,growth at 10 µM,A498,-43%
same,growth at 10 µM,SN12C [18],-45%
same,growth at 10 µM,TK-10 [19],26%
same,growth at 100 µM,M14,-78%
same,growth at 100 µM,RXF 393 [20],-86%
same,growth at 100 µM,BT-549 [21],-97%
